Tests used:
PDGF-R = PDGF-R (Homo sapiens, UniProt P09619); assay: PDGF-R ELISA; type: cell-based
Description: A PDGF-R ELISA is described in International Patent Publication No. WO 96/40116, published December 19, 1996 by Tang et al.

EGFR = biological target: T1, EGFR (Homo sapiens, UniProt P00533); assay: EGFR ELISA assay (in vitro kinase activity, EGFR captured from A431 cell lysate); type: biochemical; parameters: concentration or dose not given beside the values
T1 construct: Add 7 ug A431 cell lysate per well (EGFR source); endogenous in cells; host or cells: A431
T1 sequence (P00533 25-1210): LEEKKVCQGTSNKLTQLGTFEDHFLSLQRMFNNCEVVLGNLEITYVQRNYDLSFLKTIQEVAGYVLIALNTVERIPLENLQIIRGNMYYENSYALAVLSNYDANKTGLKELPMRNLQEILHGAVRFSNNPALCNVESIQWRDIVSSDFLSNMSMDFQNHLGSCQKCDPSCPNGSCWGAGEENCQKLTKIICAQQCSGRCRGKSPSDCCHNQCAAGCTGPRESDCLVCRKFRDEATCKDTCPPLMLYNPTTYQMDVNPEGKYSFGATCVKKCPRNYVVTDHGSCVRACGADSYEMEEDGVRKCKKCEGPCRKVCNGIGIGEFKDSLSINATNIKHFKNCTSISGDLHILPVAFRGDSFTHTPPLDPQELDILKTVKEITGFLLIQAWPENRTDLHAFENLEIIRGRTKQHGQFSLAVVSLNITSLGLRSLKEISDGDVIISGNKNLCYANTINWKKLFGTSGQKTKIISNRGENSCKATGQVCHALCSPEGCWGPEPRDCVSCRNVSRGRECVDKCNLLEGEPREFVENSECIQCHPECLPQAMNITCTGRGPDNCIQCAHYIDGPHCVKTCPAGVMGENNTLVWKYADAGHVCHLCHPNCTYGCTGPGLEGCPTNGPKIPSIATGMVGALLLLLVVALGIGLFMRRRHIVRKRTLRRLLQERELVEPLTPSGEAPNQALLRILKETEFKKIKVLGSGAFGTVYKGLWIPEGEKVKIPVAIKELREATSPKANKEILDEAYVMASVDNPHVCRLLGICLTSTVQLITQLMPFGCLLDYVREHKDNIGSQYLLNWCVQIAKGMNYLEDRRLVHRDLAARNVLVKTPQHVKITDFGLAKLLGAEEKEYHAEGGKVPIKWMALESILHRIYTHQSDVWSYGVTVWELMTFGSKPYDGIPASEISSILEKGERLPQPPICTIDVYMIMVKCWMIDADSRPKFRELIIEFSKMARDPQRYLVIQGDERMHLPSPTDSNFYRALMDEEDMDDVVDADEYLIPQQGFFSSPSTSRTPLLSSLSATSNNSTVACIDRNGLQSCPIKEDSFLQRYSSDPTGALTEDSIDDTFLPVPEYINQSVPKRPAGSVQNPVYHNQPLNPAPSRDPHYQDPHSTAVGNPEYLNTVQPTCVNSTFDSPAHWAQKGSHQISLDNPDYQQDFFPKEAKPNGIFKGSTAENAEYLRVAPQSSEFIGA
Description: To provide a consistent method for measuring the in vitro kinase activity of the EGFR in an Enzyme-linked immunosorbent assay (Elisa).
Scope. The following protocol describes the procedures used to analyze protein tyrosine kinase activity on the EGFR in an Elisa. The procedure also describes the protocol for the initial screening of drugs for inhibition or activation of protein tyrosine kinase activity.
Reagents and Supplies. • 1. […] 05-101 monoclonal anti-EGFR antibody (commercially available from UB1) -80° C, 1 ml aliquots • 3. […] TBST Buffer Formulation: 50 mM Tris pH 7.2 150 mM NaCl 0.1% Triton X-100 • 5. Blocking Buffer Formulation: 5% Carnation Instant Milk in PBS • 6. A431 cell lysate A431 cells are available from a variety of commercial sources and may be used lysed using conventional methods known to those skilled in the art or as described for lysis of the 3T3 cells in the EGF cellular assay described herein. -80° C, 1 ml aliquots • 7. TBS Buffer Formulation: 50 mM Tris pH 7.2 150 mM NaCl • 8. […] NUNC 96-well V bottom polypropylene plates Applied Scientific Catalog # AS-72092 • 11. EDTA Formulation: 200 mM EDTA pH 8.0 • 12. […] Goat anti-rabbit IgG peroxidase conjugate Biosource Catalog # ALI0404 • 14. ABTS Solution Formulation: 100 mM Citric Acid (anhydrous) 250 mM Na2HPO4 pH 4.0 0.5 mg/ml ABTS (2,2'-azino-bis(3-ethylbenzthiazoline-6-sulfonic acid) (Sigma Catalog # A-1888) Keep solution in dark at 4 C until ready to use • 15. Hydrogen peroxide 30% solution Fisher Catalog # H325 Store in the dark at 4 C until ready to use • 16. ABTS/H2O2 Formulation: 15 mls ABTS solution 2 ul H2O2 Prepare 5 minutes before use and room temperature • 17. 0.2 M HCL stock in H2O Procedure. • 1. Coat Corning 96-well elisa plates with 0.5 ug per well 05-101 antibody. Bring final volume to 100 ul per well with PBS. Coat plates overnight at 4° C. • 2. Remove unbound 05-101 from wells by inverting plate to remove liquid. Wash 1x with distilled H2O by filling wells Pat the plate on a paper towel to remove excess liquid. • 3. Block plates with 5% milk in PBS. 150 ul per well. Incubate plate 30 minutes while shaking on a microtiter plate shaker. • 4. Wash plate 3x with dionized water, then once with TBST • 5. Add 7 ug A431 cell lysate per well (EGFR source). Add PBS to final volume of 100 ul per well Incubate 30 minutes while shaking. • 6. Wash as described in step 4. • 7. At this point, drugs or extracts are added to the wells. Dilute drugs/extracts 1:100 (unless specified otherwise) in TBS + 10% DMSO in 96-well polypropylene plates. Add 120 ul TBS to ELISA plate containing captured EGFR. Add 13.5 ul diluted drugs/extracts to ELISA plate. […] Incubate plate 30 minutes while shaking. • 8. […] (150 ul final volume in well with 3 uM ATP/5 mM MnCl2 final concentration in well.) Incubate 5 minutes while shaking vigorously. *NOTE: It is critical that ATP/MnCl2 phosphorylates the receptor for 5 minutes only. It is best to add the ATP/MnCl2 with an 12 channel pipettor 1 row at a time leaving 20 seconds between each row so that the reaction may be stopped with EDTA exactly 5 minutes later (this depends on the number of plates being phosphorylated in one batch). Shake between each addition. • 9. After 5 minutes, to stop reaction, add 16.5 ul of 200 mM EDTA pH 8.0 for 20 mM final in well, shaking continuously between each addition. This is done using the same timing method as above. After last row has received EDTA, shake plate an additional minute. • 10. Wash 4x with deionized water, twice with TBST. • 11. Add rabbit polyclonal anti-phosphotyrosine serum. Dilute 1:3000 in TBST. Add 100 ul per well. Incubate 30-45 minutes while shaking. • 12. Wash as described above in step 4. • 13. Add BioSource anti-rabbit peroxidase conjugate antibody. Dilute 1:2000 in TBST. Add 100 ul per well. Incubate 30 minutes while shaking. • 14. Wash as described in step 4. • 15. Add 100 ul of ABTS/H2O2 solution to well. Incubate 5 to 10 minutes while shaking. Remove bubbles • 16. […]

Chain of PDGF-R (P09619 33-1106, species assumed): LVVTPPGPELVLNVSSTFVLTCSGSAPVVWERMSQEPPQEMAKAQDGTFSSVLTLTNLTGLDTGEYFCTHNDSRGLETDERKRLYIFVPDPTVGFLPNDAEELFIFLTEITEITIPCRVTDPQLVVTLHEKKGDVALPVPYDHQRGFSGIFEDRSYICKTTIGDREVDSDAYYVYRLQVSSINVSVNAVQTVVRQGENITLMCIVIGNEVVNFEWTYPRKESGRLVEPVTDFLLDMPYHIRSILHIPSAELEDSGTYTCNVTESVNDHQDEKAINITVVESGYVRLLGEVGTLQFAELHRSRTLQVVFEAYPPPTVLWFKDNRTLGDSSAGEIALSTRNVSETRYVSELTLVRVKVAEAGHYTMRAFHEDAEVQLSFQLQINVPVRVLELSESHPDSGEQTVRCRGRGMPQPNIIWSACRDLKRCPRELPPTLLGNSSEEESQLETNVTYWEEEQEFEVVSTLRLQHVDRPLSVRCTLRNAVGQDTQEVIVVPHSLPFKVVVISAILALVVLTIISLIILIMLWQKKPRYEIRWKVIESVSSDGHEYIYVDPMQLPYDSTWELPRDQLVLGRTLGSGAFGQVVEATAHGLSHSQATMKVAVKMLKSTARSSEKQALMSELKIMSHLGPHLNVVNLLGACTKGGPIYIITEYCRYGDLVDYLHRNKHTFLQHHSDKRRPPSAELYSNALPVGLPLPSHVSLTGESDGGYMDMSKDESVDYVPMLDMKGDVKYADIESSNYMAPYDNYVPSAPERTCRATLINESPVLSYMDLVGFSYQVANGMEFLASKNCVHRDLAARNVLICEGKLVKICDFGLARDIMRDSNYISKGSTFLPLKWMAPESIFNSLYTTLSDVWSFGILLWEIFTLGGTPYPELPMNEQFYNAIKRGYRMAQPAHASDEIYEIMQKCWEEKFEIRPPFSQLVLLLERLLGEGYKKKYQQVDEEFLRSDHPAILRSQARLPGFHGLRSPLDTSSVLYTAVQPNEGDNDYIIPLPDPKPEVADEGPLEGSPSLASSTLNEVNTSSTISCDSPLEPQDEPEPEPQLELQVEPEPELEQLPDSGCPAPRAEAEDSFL

Row | Compound | PDGF Kinase %Inhibition (PDGF-R) [%] | Biochem EGFR %Inhibition (EGFR) [%]
1 | O=C1Nc2c(Br)cc(Br)cc2C1=CC(c1cccs1)C(F)(F)F (stereo not drawn) [10732/A02] | 10.8 | 5.1
2 | COc1c(C(C)C)cc(C=C2C(=O)Nc3c(Br)cc(Br)cc32)cc1C(C)C [10732/A03] | -3.8 | 0.8
3 | CC(C)c1cc(C=C2C(=O)Nc3c(Br)cc(Br)cc32)cc(C(C)C)c1Oc1ccccc1 [10732/A04] | -9.4 | -10.6
4 | COc1ccc(C=C2C(=O)Nc3c(Br)cc(Br)cc32)cc1C(C)(C)C [10732/A05] | -12.9 | 4.6
5 | CC(C)(C)c1cc(C=C2C(=O)Nc3c(Br)cc(Br)cc32)ccc1OCc1ccccc1 [10732/A06] | 12.3 | -1.4
6 | COc1c(Br)cc(C=C2C(=O)Nc3c(Br)cc(Br)cc32)cc1C(C)(C)C [10732/A07] | 0.7 | -0.3
7 | CC(C)(C)c1cc(C=C2C(=O)Nc3c(Br)cc(Br)cc32)cc(Br)c1OCc1ccccc1 [10732/A08] | 31.0 | 12.1
8 | COc1c(Cl)cc(C=C2C(=O)Nc3c(Br)cc(Br)cc32)cc1C(C)(C)C [10732/A09] | 8.8 | 39.7
9 | CC(C)(C)c1cc(C=C2C(=O)Nc3c(Br)cc(Br)cc32)cc(Cl)c1OCc1ccccc1 [10732/A10] | 7.3 | 6.1
10 | COc1c(I)cc(C=C2C(=O)Nc3c(Br)cc(Br)cc32)cc1C(C)(C)C [10732/A11] | 40.1 | 1.8
11 | O=C1Nc2ccc(I)cc2C1=CC(c1cccs1)C(F)(F)F (stereo not drawn) [10732/B02] | 23.5 | -26.0
12 | COc1c(C(C)C)cc(C=C2C(=O)Nc3ccc(I)cc32)cc1C(C)C [10732/B03] | 17.4 | -15.3
13 | CC(C)c1cc(C=C2C(=O)Nc3ccc(I)cc32)cc(C(C)C)c1Oc1ccccc1 [10732/B04] | 16.9 | -22.1
14 | COc1ccc(C=C2C(=O)Nc3ccc(I)cc32)cc1C(C)(C)C [10732/B05] | 21.9 | 17.0
15 | CC(C)(C)c1cc(C=C2C(=O)Nc3ccc(I)cc32)ccc1OCc1ccccc1 [10732/B06] | -12.4 | 12.8
16 | COc1c(Br)cc(C=C2C(=O)Nc3ccc(I)cc32)cc1C(C)(C)C [10732/B07] | 21.4 | 15.8
17 | CC(C)(C)c1cc(C=C2C(=O)Nc3ccc(I)cc32)cc(Br)c1OCc1ccccc1 [10732/B08] | 16.9 | 7.8
18 | COc1c(Cl)cc(C=C2C(=O)Nc3ccc(I)cc32)cc1C(C)(C)C [10732/B09] | 18.4 | 2.0
19 | CC(C)(C)c1cc(C=C2C(=O)Nc3ccc(I)cc32)cc(Cl)c1OCc1ccccc1 [10732/B10] | 0.7 | 0.6
20 | COc1c(I)cc(C=C2C(=O)Nc3ccc(I)cc32)cc1C(C)(C)C [10732/B11] | 70.9 | 9.3

Row | Compound | PDGF Kinase %Inhibition (PDGF-R) [%] | Biochem EGFR %Inhibition (EGFR) [%]
21 | Cc1c(Br)ccc2c1C(=CC(c1cccs1)C(F)(F)F)C(=O)N2 (stereo not drawn) [10732/C02] | 7.3 | -6.5
22 | COc1c(C(C)C)cc(C=C2C(=O)Nc3ccc(Br)c(C)c32)cc1C(C)C [10732/C03] | 7.3 | 1.4
23 | Cc1c(Br)ccc2c1C(=Cc1cc(C(C)C)c(Oc3ccccc3)c(C(C)C)c1)C(=O)N2 [10732/C04] | 3.8 | -14.7
24 | COc1ccc(C=C2C(=O)Nc3ccc(Br)c(C)c32)cc1C(C)(C)C [10732/C05] | -17.0 | -22.8
25 | Cc1c(Br)ccc2c1C(=Cc1ccc(OCc3ccccc3)c(C(C)(C)C)c1)C(=O)N2 [10732/C06] | 5.3 | -43.2
26 | COc1c(Br)cc(C=C2C(=O)Nc3ccc(Br)c(C)c32)cc1C(C)(C)C [10732/C07] | 4.3 | -28.6
27 | Cc1c(Br)ccc2c1C(=Cc1cc(Br)c(OCc3ccccc3)c(C(C)(C)C)c1)C(=O)N2 [10732/C08] | 17.9 | 1.6
28 | COc1c(Cl)cc(C=C2C(=O)Nc3ccc(Br)c(C)c32)cc1C(C)(C)C [10732/C09] | 15.4 | -3.9
29 | Cc1c(Br)ccc2c1C(=Cc1cc(Cl)c(OCc3ccccc3)c(C(C)(C)C)c1)C(=O)N2 [10732/C10] | 5.8 | 1.2
30 | COc1c(I)cc(C=C2C(=O)Nc3ccc(Br)c(C)c32)cc1C(C)(C)C [10732/C11] | 16.4 | -5.0
31 | CNS(=O)(=O)c1ccc2c(c1)C(=CC(c1cccs1)C(F)(F)F)C(=O)N2 (stereo not drawn) [10732/D02] | -24.0 | 8.7
32 | CNS(=O)(=O)c1ccc2c(c1)C(=Cc1cc(C(C)C)c(OC)c(C(C)C)c1)C(=O)N2 [10732/D03] | 26.0 | -18.7
33 | CNS(=O)(=O)c1ccc2c(c1)C(=Cc1cc(C(C)C)c(Oc3ccccc3)c(C(C)C)c1)C(=O)N2 [10732/D04] | 50.7 | -11.4
34 | CNS(=O)(=O)c1ccc2c(c1)C(=Cc1ccc(OC)c(C(C)(C)C)c1)C(=O)N2 [10732/D05] | 4.3 | -36.7
35 | CNS(=O)(=O)c1ccc2c(c1)C(=Cc1ccc(OCc3ccccc3)c(C(C)(C)C)c1)C(=O)N2 [10732/D06] | 16.4 | 3.6
36 | CNS(=O)(=O)c1ccc2c(c1)C(=Cc1cc(Br)c(OC)c(C(C)(C)C)c1)C(=O)N2 [10732/D07] | -3.8 | -19.1
37 | CNS(=O)(=O)c1ccc2c(c1)C(=Cc1cc(Br)c(OCc3ccccc3)c(C(C)(C)C)c1)C(=O)N2 [10732/D08] | 30.5 | -20.6
38 | CNS(=O)(=O)c1ccc2c(c1)C(=Cc1cc(Cl)c(OC)c(C(C)(C)C)c1)C(=O)N2 [10732/D09] | 15.9 | -9.9
39 | CNS(=O)(=O)c1ccc2c(c1)C(=Cc1cc(Cl)c(OCc3ccccc3)c(C(C)(C)C)c1)C(=O)N2 [10732/D10] | 24.5 | -16.6
